Tested on: blood pressure of subjects
Test: Effect of multiple administration of MN-08 on blood pressure of subjects (3 days)
Assay type: in vivo, human
Source text: All subjects in the following embodiments have signed informed consent forms, which comply with medical ethics regulations. According to the relevant provisions of Chinese Guidelines for the Prevention and Treatment of Hypertension (2018 Revision), the values measured for hypertension are the average blood pressure measured three times on a different day without the use of antihypertensive drugs. Therefore, in this embodiment, the baseline blood pressure of the subjects before administration is set as the average blood pressure measured at three different times: screening period, occupancy period, and 1 hour before administration, as shown in Tables 1 to 3.
Multiple dosing trials: Participants in each dose group fasted for at least 10 hours before administration, without water deprivation overnight. Each group of subjects took the test drug orally on an empty stomach twice a day (with an interval of 12 hours and at least 1 hour on an empty stomach before the second administration). The first administration time every day is around 8 am, taken with 240 mL of water. Taking subjects 15-17 as an example, the effect of multiple doses of MN-08 (3 days) on subjects' blood pressure was investigated.

CCC12CC3CC(N)(C1)CC(CO[N+](=O)[O-])(C3)C2 (stereo not shown) [MN-08]
DP (Subject 15, 12 mg twice a day, D 1, 2 hrs after 2nd adm., baseline 75 mmHg): 59 mmHg
SP (Subject 15, 12 mg twice a day, D 1, 2 hrs after 2nd adm., baseline 108 mmHg): 94 mmHg
DP (Subject 15, 12 mg twice a day, D 1, 4 hrs after 1st adm., baseline 75 mmHg): 61 mmHg
SP (Subject 15, 12 mg twice a day, D 1, 4 hrs after 1st adm., baseline 108 mmHg): 96 mmHg
DP (Subject 15, 12 mg twice a day, D 1, 8 hrs after 1st adm., baseline 75 mmHg): 51 mmHg
SP (Subject 15, 12 mg twice a day, D 1, 8 hrs after 1st adm., baseline 108 mmHg): 100 mmHg
DP (Subject 15, 12 mg twice a day, D 2, 2 hrs after 2nd adm., baseline 75 mmHg): 64 mmHg
SP (Subject 15, 12 mg twice a day, D 2, 2 hrs after 2nd adm., baseline 108 mmHg): 95 mmHg
DP (Subject 15, 12 mg twice a day, D 2, 4 hrs after 1st adm., baseline 75 mmHg): 56 mmHg
SP (Subject 15, 12 mg twice a day, D 2, 4 hrs after 1st adm., baseline 108 mmHg): 92 mmHg
DP (Subject 15, 12 mg twice a day, D 2, 8 hrs after 1st adm., baseline 75 mmHg): 57 mmHg
SP (Subject 15, 12 mg twice a day, D 2, 8 hrs after 1st adm., baseline 108 mmHg): 108 mmHg
DP (Subject 15, 12 mg twice a day, D 3, 2 hrs after 2nd adm., baseline 75 mmHg): 65 mmHg
SP (Subject 15, 12 mg twice a day, D 3, 2 hrs after 2nd adm., baseline 108 mmHg): 105 mmHg
DP (Subject 15, 12 mg twice a day, D 3, 4 hrs after 1st adm., baseline 75 mmHg): 64 mmHg
SP (Subject 15, 12 mg twice a day, D 3, 4 hrs after 1st adm., baseline 108 mmHg): 95 mmHg
DP (Subject 15, 12 mg twice a day, D 3, 8 hrs after 1st adm., baseline 75 mmHg): 57 mmHg
SP (Subject 15, 12 mg twice a day, D 3, 8 hrs after 1st adm., baseline 108 mmHg): 86 mmHg
DP (Subject 16, 24 mg twice a day, D 1, 2 hrs after 2nd adm., baseline 81 mmHg): 66 mmHg
SP (Subject 16, 24 mg twice a day, D 1, 2 hrs after 2nd adm., baseline 118 mmHg): 103 mmHg
DP (Subject 16, 24 mg twice a day, D 1, 4 hrs after 1st adm., baseline 81 mmHg): 61 mmHg
SP (Subject 16, 24 mg twice a day, D 1, 4 hrs after 1st adm., baseline 118 mmHg): 97 mmHg
DP (Subject 16, 24 mg twice a day, D 1, 8 hrs after 1st adm., baseline 81 mmHg): 63 mmHg
SP (Subject 16, 24 mg twice a day, D 1, 8 hrs after 1st adm., baseline 118 mmHg): 102 mmHg
DP (Subject 16, 24 mg twice a day, D 2, 2 hrs after 2nd adm., baseline 81 mmHg): 61 mmHg
SP (Subject 16, 24 mg twice a day, D 2, 2 hrs after 2nd adm., baseline 118 mmHg): 100 mmHg
DP (Subject 16, 24 mg twice a day, D 2, 4 hrs after 1st adm., baseline 81 mmHg): 69 mmHg
SP (Subject 16, 24 mg twice a day, D 2, 4 hrs after 1st adm., baseline 118 mmHg): 106 mmHg
DP (Subject 16, 24 mg twice a day, D 2, 8 hrs after 1st adm., baseline 81 mmHg): 65 mmHg
SP (Subject 16, 24 mg twice a day, D 2, 8 hrs after 1st adm., baseline 118 mmHg): 99 mmHg
DP (Subject 16, 24 mg twice a day, D 3, 2 hrs after 2nd adm., baseline 81 mmHg): 69 mmHg
SP (Subject 16, 24 mg twice a day, D 3, 2 hrs after 2nd adm., baseline 118 mmHg): 98 mmHg
DP (Subject 16, 24 mg twice a day, D 3, 4 hrs after 1st adm., baseline 81 mmHg): 67 mmHg
SP (Subject 16, 24 mg twice a day, D 3, 4 hrs after 1st adm., baseline 118 mmHg): 107 mmHg
DP (Subject 16, 24 mg twice a day, D 3, 8 hrs after 1st adm., baseline 81 mmHg): 63 mmHg
SP (Subject 16, 24 mg twice a day, D 3, 8 hrs after 1st adm., baseline 118 mmHg): 95 mmHg
DP (Subject 17, 24 mg twice a day, D 1, 2 hrs after 2nd adm., baseline 87 mmHg): 73 mmHg
SP (Subject 17, 24 mg twice a day, D 1, 2 hrs after 2nd adm., baseline 126 mmHg): 107 mmHg
DP (Subject 17, 24 mg twice a day, D 1, 4 hrs after 1st adm., baseline 87 mmHg): 81 mmHg
SP (Subject 17, 24 mg twice a day, D 1, 4 hrs after 1st adm., baseline 126 mmHg): 126 mmHg
DP (Subject 17, 24 mg twice a day, D 1, 8 hrs after 1st adm., baseline 87 mmHg): 66 mmHg
SP (Subject 17, 24 mg twice a day, D 1, 8 hrs after 1st adm., baseline 126 mmHg): 112 mmHg
DP (Subject 17, 24 mg twice a day, D 2, 2 hrs after 2nd adm., baseline 87 mmHg): 63 mmHg
SP (Subject 17, 24 mg twice a day, D 2, 2 hrs after 2nd adm., baseline 126 mmHg): 94 mmHg
DP (Subject 17, 24 mg twice a day, D 2, 4 hrs after 1st adm., baseline 87 mmHg): 73 mmHg
SP (Subject 17, 24 mg twice a day, D 2, 4 hrs after 1st adm., baseline 126 mmHg): 102 mmHg
DP (Subject 17, 24 mg twice a day, D 2, 8 hrs after 1st adm., baseline 87 mmHg): 68 mmHg
SP (Subject 17, 24 mg twice a day, D 2, 8 hrs after 1st adm., baseline 126 mmHg): 115 mmHg
DP (Subject 17, 24 mg twice a day, D 3, 2 hrs after 2nd adm., baseline 87 mmHg): 74 mmHg
SP (Subject 17, 24 mg twice a day, D 3, 2 hrs after 2nd adm., baseline 126 mmHg): 110 mmHg
DP (Subject 17, 24 mg twice a day, D 3, 4 hrs after 1st adm., baseline 87 mmHg): 70 mmHg
SP (Subject 17, 24 mg twice a day, D 3, 4 hrs after 1st adm., baseline 126 mmHg): 107 mmHg
DP (Subject 17, 24 mg twice a day, D 3, 8 hrs after 1st adm., baseline 87 mmHg): 76 mmHg
SP (Subject 17, 24 mg twice a day, D 3, 8 hrs after 1st adm., baseline 126 mmHg): 111 mmHg
effect on blood pressure of the subjects (continuous administration for 3 days, twice a day, 12 mg and 24 mg groups, decrease in diastolic greater than in systolic pressure): can lower the blood pressure

From patent publication US20260242330A1, “USE OF AN AMANTADINE MONONITRATE COMPOUND IN MANUFACTURE OF A MEDICAMENT FOR THE PREVENTION AND TREATMENT OF HYPERTENSION” (GUANGZHOU MAGPIE PHARMACEUTICALS CO., LTD., priority 2022, published 2026)
